The source made the active and inactive calls.
Tests used:
Cytochrome P450 3A4 = Cytochrome P450 3A4 (Homo sapiens, UniProt P08684);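 also: CYP3A4 tested as one member of a cytochrome P450 panel screen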
Cytochrome P450 2C9 = Cytochrome P450 2C9 (Homo sapiens, UniProt P11712)
[1] = test system: Streptococcus sp. 'group A'; assay: growth inhibition of control SK(-) GAS strain, dose response, counter-screen for streptokinase expression inhibitor project, luminescence, kanamycin, BacTiterGlo, confirmation (AID 1900); assay type: functional, organism-based
Streptococcus = assay: Group A Streptococcus viability loss, dose response, counter-screen for streptokinase expression inhibitor project, luminescence, BacTiterGlo (AID 1915); assay type: functional, organism-based;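 also: potency for reduction of bacterial viability or growth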
Cytochrome P450 2C19 = Cytochrome P450 2C19 (Homo sapiens, UniProt P33261); assay: Cytochrome panel assay with activity outcomes. Panel member name: p450-cyp2c19 Compounds with AC50 equal or less than 10 uM are considered active; assay type: functional
Cytochrome P450 2C19, sequence (P33261 whole entry): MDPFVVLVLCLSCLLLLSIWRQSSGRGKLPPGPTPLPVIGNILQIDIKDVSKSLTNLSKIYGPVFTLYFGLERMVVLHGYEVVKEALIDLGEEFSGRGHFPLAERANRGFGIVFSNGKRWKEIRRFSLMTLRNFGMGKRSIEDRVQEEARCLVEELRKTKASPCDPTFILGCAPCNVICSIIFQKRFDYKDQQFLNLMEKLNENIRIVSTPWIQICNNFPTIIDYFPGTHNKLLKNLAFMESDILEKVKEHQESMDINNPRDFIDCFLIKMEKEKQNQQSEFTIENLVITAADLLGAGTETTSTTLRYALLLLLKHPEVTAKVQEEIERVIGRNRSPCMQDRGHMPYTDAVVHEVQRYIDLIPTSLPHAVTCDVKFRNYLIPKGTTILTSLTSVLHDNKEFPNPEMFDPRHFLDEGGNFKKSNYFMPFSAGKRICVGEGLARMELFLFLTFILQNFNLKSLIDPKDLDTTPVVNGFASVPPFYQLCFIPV

[2] = HEp-2 cell cytotoxicity, dose response, cytotoxicity control for RSV inhibitor project, HTS (AID 2410); assay type: functional; details: human respiratory syncytial virus
[3] = inhibitors of intracellular T. cruzi replication, confirmation, NIH3T3 host cells, beta-gal luminescence (AID 2044); assay type: functional, cell-based;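 also: intracellular parasites grown in NIH/3T3 mouse fibroblasts as host cells; luminescent beta-galactosidase reporter signal from transgenic T. cruzi replicating inside host cells; inhibitors lower the luminescence signal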
[4] = cytotoxicity toward NIH3T3 fibroblasts, dose response, counter-screen, cell-based, ATP luminescence, mouse fibroblasts (AID 2010); assay type: functional;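 also: cells exposed to compound for about 90 hours before reading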
[5] = Luminescence Cell-Based Dose Retest to Confirm Inhibitors of Cancer Stem Cells. [Related pubchem assays (depositor defined):AID2717, AID2721]; assay type: functional; details: Homo sapiens
[6] = Shn3 3'UTR reporter inhibitors, dose response, cell-based, Clone20 osteoblasts, firefly luciferase, cherry-picked (AID 624132); assay type: functional;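 also: firefly luciferase luminescence from reporter carrying the Shn3 3'UTR in osteoblasts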

Cytochrome P450 3A4, sequence (P08684 whole entry): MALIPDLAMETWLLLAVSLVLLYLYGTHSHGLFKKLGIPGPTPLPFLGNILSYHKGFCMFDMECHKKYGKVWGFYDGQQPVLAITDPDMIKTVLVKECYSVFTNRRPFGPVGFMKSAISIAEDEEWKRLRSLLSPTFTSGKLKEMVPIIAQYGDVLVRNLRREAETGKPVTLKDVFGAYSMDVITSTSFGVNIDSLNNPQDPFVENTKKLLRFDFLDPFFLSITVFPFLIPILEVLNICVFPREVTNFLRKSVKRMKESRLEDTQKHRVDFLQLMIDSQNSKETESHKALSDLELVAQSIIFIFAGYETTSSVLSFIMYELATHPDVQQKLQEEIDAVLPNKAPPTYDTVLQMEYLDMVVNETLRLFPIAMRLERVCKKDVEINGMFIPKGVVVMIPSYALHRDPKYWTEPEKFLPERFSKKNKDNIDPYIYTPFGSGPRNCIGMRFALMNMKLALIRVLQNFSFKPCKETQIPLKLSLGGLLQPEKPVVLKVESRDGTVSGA
Cytochrome P450 2C9, sequence (P11712 whole entry): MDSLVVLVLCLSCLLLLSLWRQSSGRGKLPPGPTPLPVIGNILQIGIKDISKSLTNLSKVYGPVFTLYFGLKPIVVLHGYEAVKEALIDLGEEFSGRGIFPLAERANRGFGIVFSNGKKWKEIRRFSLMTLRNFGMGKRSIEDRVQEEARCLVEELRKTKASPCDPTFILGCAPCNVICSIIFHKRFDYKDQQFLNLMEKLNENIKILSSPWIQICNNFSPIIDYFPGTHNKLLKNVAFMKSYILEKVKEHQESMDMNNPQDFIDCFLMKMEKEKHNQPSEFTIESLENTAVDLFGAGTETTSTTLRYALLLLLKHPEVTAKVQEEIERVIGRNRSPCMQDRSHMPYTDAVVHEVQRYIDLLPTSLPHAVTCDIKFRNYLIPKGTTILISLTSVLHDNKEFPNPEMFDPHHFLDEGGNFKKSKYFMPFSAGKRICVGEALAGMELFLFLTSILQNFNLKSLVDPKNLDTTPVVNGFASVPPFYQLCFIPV

CC(C)COP(=O)(c1ccc(N(C)C)cc1)C(O)c1ccccc1F (centres undefined)
AC50 (Cytochrome P450 3A4): 3.98 µM (inconclusive) | AC50 (Cytochrome P450 2C9): 12.6 µM (inconclusive)

Cc1nn2c(COc3ccc(NC(=O)c4ccccc4)cc3)nnc2c2ccccc12
EC50 [1]: 0.854 µM (active) | EC50 (Streptococcus): 0.859 µM (active)

CCOC(=O)[C@@H](O)Cc1cnc2ccccc2n1
AC50 (Cytochrome P450 2C9): 3.98 µM (inconclusive)

CCOC(=O)c1nnn(-c2nonc2N)c1-c1ccccc1
AC50 (Cytochrome P450 2C9): 10 µM (inconclusive)

N#C/C(=C\c1ccc(Oc2ccc(C(F)(F)F)cc2[N+](=O)[O-])cc1)c1nc2ccccc2[nH]1
AC50 (Cytochrome P450 3A4): 11.2 µM (inconclusive)

O=C(O)C(Cc1cccs1)C(=O)O
AC50 (Cytochrome P450 2C19): inconclusive

FC(F)(F)c1cnc(N2CCC(=NOCc3ccc(Cl)cc3)CC2)c(Cl)c1
AC50 (Cytochrome P450 2C19; read-out: AC50): 20 µM (inconclusive)

COc1ccc(N2CCN(C(=O)CSc3nnc4c(C)cc5cc(C)ccc5n34)CC2)cc1
CC50 [2]: > 50 µM (active)

Clc1ccc(OCCOCCN2CCCCC2)c(Br)c1
EC50 [3]: 0.166 µM (active) | EC50 [4]: 13.2 µM (active)

CCCn1cnc2c(SCC(=O)O)nc(N)nc21
AC50 (Cytochrome P450 2C19): inconclusive

COC(=O)[C@@]1(Cc2ccc(OC)cc2)[C@H]2c3cc(C(=O)N4CCCC4)n(Cc4ccc(OC(F)(F)F)cc4)c3C[C@H]2CN1C(=O)c1ccccc1
AC50 (Cytochrome P450 2C19; read-out: AC50): 7.94 µM (inconclusive)

CC1CC(C)CN(C(=O)c2cc3cc(Br)cc(Br)c3o2)C1 (centres undefined)
CC50 [2]: 18.9 µM (active)

CC(C)=CCC/C(C)=C/CO/N=C1/[C@H]2O[C@@H]2[C@@H](O)[C@H]2[C@H]1CCn1c(=O)n(Cc3cc4c(cc3Cl)OCO4)c(=O)n12
AC50 (Cytochrome P450 3A4): 3.98 µM (inconclusive)

CC1CCCC(NC(=O)C2CCCN2S(=O)(=O)c2cccc3nsnc23)C1C (centres undefined)
CC50 [2]: 23.6 µM (active)

Cc1sc2nc(SCC(=O)C(C)(C)C)n(Cc3ccco3)c(=O)c2c1C
AC50 (Cytochrome P450 2C19; read-out: AC50): 5.01 µM (inconclusive)

CCOC(=O)CSc1cc(C(F)(F)F)nc(-c2ccccn2)n1
AC50 (Cytochrome P450 2C19; read-out: AC50): 17.8 µM (inconclusive) | AC50 (Cytochrome P450 2C9): 39.8 µM (inconclusive)

O=C(O)c1cc2c(ccc3ccccc32)[nH]1
CC50 [2]: 30.9 µM (active)

CCOc1ccccc1NC(=O)Nc1ccc(CC#N)cc1
CC50 [2]: 28 µM (active)

CCN1CCN(c2ccc(S(=O)(=O)N3CCOCC3)cc2NC(=O)CCC(C)C)CC1
EC50 [3]: 1.34 µM (active) | EC50 [4]: > 60 µM (not active)

CCOc1cc(NC(=O)c2cccc(C)c2)c(OCC)cc1N=C(S)NCC1CCCO1 (centres undefined)
AC50 (Cytochrome P450 2C9): 7.94 µM (inconclusive)

C=C(Br)CN(C)CC(=C)Br
AC50 (Cytochrome P450 2C19): inconclusive

CCCCNc1c(-c2ccc(SC(C)CC)cc2)nc2ccccn12 (centres undefined)
AC50 [5]: 4.29 µM (active)

COCCn1c(=O)c(CCc2ccccc2)nc2cnc(OC)nc21
AC50 (Cytochrome P450 2C9): 20 µM (inconclusive)

Cc1cccc2cc(CN(Cc3nnnn3Cc3ccco3)C3CCCC3)c3nnnn3c12
CC50 [2]: > 50 µM (active)

O=S(=O)(c1ccc(Cl)cc1)N1CCN(C2CCN(Cc3ccccc3)CC2)CC1
EC50 [3]: 1.07 µM (active) | EC50 [4]: > 60 µM (not active)

Oc1nc2ccc(Br)cc2c(-c2ccccc2)c1CN1CCOCC1
CC50 [2]: 48.4 µM (active)

ON(CCc1ccccn1)Cc1ccccc1
AC50 (Cytochrome P450 3A4): 3.98 µM (inconclusive)

CN(CCc1ccccn1)Cc1ccc(Cl)cc1Cl
AC50 (Cytochrome P450 2C9): 6.31 µM (inconclusive)

Cc1ccc(C2CC(c3cccs3)=NN2C(=O)CSc2nc3ccccc3o2)cc1 (centres undefined)
CC50 [2]: 30.2 µM (active)

CC(Oc1ccc(-c2ccccc2)c(F)c1)c1ccn(S(=O)(=O)c2ccc(Cl)cc2)n1 (centres undefined)
AC50 (Cytochrome P450 3A4): 15.8 µM (inconclusive)

COc1ccc2c(=O)cc(-c3ccncc3)oc2c1OC
AC50 (Cytochrome P450 3A4): 3.98 µM (inconclusive)

Cc1cc(C(=O)N2CCc3c([nH]c4ccccc34)C2c2cccc(Cl)c2)nn1C (centres undefined)
EC50 [3]: 2.17 µM (active) | EC50 [4]: > 60 µM (not active)

C=CCOc1cccc(CNn2cnnc2S)c1
AC50 (Cytochrome P450 3A4): 28.2 µM (inconclusive) | AC50 (Cytochrome P450 2C9): 6.31 µM (inconclusive)

CCOC(=O)c1c(NC(=O)c2nn(CC)cc2Br)sc(C)c1C
AC50 [6]: 11 µM (active)

O=C(Nc1ccccc1N1CCOCC1)c1cc2c(s1)CCCCC2
CC50 [2]: > 50 µM (active)

Cc1cc(C(=O)COc2ccc(Cl)cc2Br)c(C)n1C
CC50 [2]: > 50 µM (active)

COc1ccc(C)cc1Nc1n[n+](-c2ccccc2)c(-c2cccc(Cl)c2Cl)s1
EC50 [3]: 3 µM (active) | EC50 [4]: 15.4 µM (active)

Cc1ccc(C(=O)N2C3C=CC(C3)C2(C(F)(F)F)C(F)(F)F)cc1 (centres undefined)
AC50 (Cytochrome P450 2C9): 39.8 µM (inconclusive)

COc1cccc(-c2nc(CS(=O)(=O)CC(=O)NCCCOC(C)C)c(C)o2)c1
AC50 (Cytochrome P450 2C19; read-out: AC50): 17.8 µM (inconclusive) | AC50 (Cytochrome P450 2C9): 11.2 µM (inconclusive)

Cc1ccc(S(=O)(=O)NCC(=O)N(CC(=O)NCc2ccco2)Cc2cccs2)cc1
AC50 (Cytochrome P450 2C9): 15.8 µM (inconclusive)

CCOc1ccc(N/C(C)=C/C(=O)c2ccc(C)o2)cc1
EC50 [3]: 2.98 µM (active) | EC50 [4]: > 60 µM (not active)

OCCC1CN(Cc2cccc(C(F)(F)F)c2)CCN1Cc1ccccc1 (centres undefined)
EC50 [3]: 1.33 µM (active) | EC50 [4]: > 60 µM (inconclusive)

CCN1CCN(CC(=O)Nc2ccc(S(=O)(=O)N3C(C)CCCC3C)cc2)CC1 (centres undefined)
EC50 [3]: 1.07 µM (active) | EC50 [4]: > 60 µM (not active)

COC(=O)c1cc(NC(=O)c2cc(-c3ccc(Cl)cc3)oc2C(F)(F)F)ccc1N1CCOCC1
EC50 [3]: 3.3 µM (active) | EC50 [4]: > 60 µM (not active)

C[C@@H]1O[C@H](O[C@@H]2CC[C@@]3(C=O)[C@H]4CC[C@@]5(C)[C@@H](C6=CC(=O)OC6)CC[C@@]5(O)[C@@H]4CC[C@]3(O)C2)C[C@H](O)[C@@H]1O
AC50 (Cytochrome P450 3A4): 15.8 µM (inconclusive)

Oc1ccc2c3c1O[C@H]1c4oc5ccccc5c4C[C@]4(O)[C@H](C2)N(CC2CC2)CC[C@@]314
AC50 (Cytochrome P450 3A4): 20 µM (inconclusive)

CC(=O)N1CCC2(CC1)CN(c1ccccc1)C2
AC50 (Cytochrome P450 2C19): inconclusive

CCCCCOc1ccc(C(=O)NCC2(c3ccccc3)CCOCC2)cc1
AC50 (Cytochrome P450 3A4): 31.6 µM (inconclusive)

COc1ccc(-c2nc(-c3cc([N+](=O)[O-])ccc3C)c(-c3ccccc3)[nH]2)cc1OC
CC50 [2]: 21.4 µM (active)

Cc1ccc(-n2nc3c(N4CCC(C(=O)NCc5cccc(F)c5)CC4)nnc(C)c3c2C)cc1
CC50 [2]: 32.7 µM (active)

C=CCn1c(SCC(=O)NC2CCCCC2)nnc1C1CCCCC1
AC50 (Cytochrome P450 2C19): inconclusive | AC50 (Cytochrome P450 2C9): 28.2 µM (inconclusive)

COc1ccc2cc(S(=O)(=O)n3cnc(C)c3)ccc2c1
CC50 [2]: > 50 µM (active)

COc1c(N2CCN(C(=S)Nc3ccc(F)cc3)C(C)C2)c(F)cc2c(=O)c(C(=O)O)cn(C3CC3)c12 (centres undefined)
AC50 (Cytochrome P450 2C19; read-out: AC50): 39.8 µM (inconclusive)

COc1c(N2CCN(C(S)=Nc3ccc(F)cc3)C(C)C2)c(F)cc2c(=O)c(C(=O)O)cn(C3CC3)c12 (centres undefined)
EC50 [1]: 4.5 µM (active) | EC50 (Streptococcus): 5.79 µM (active)

CCOc1ccccc1NC(=O)CSc1nc2c(c(=O)n1C)SC(C)C2 (centres undefined)
CC50 [2]: 35.2 µM (active)

O=C(Cn1ccnc1)c1ccc(Cl)cc1
EC50 [3]: > 30 µM (not active) | EC50 [4]: > 30 µM (not active)

CCNC(=Nc1ccc(Cl)cc1)c1cccnc1
AC50 (Cytochrome P450 2C19; read-out: AC50): 1.78 µM (inconclusive) | AC50 (Cytochrome P450 3A4): 22.4 µM (inconclusive)

N=C(N)N/N=C/c1ccc(Cl)c([N+](=O)[O-])c1
EC50 [3]: 0.108 µM (active) | EC50 [4]: > 60 µM (not active)

CCCCCCCCCCCCCC(=O)O[C@H]1[C@@H](C)[C@@]2(O)[C@@H](C=C(CO)C[C@]3(O)C(=O)C(C)=C[C@@H]23)C2C(C)(C)[C@]21OC(C)=O (some centres undefined)
AC50 (Cytochrome P450 2C9): 10 µM (inconclusive)

C/C(=N\c1ccccc1C)C1=C(O)SCC1=O
CC50 [2]: 32.3 µM (active)

COc1cccc(/N=C/c2c[nH]nc2O)c1
AC50 (Cytochrome P450 2C19; read-out: AC50): 35.5 µM (inconclusive) | AC50 (Cytochrome P450 2C9): 20 µM (inconclusive)

Oc1ccccc1/N=C/c1c[nH]nc1O
AC50 (Cytochrome P450 2C19): inconclusive | AC50 (Cytochrome P450 2C9): 8.91 µM (inconclusive)

C[C@]12CCC3C(CC[C@H]4CC(O)CC[C@]34C)C1CC/C2=N/O (some centres undefined)
CC50 [2]: > 50 µM (active)

c1ccc(Nc2nc(-c3ccncc3)cs2)nc1
EC50 [3]: 0.526 µM (active) | EC50 [4]: > 60 µM (not active)

Cc1nc(N2CCC(C)CC2)c2c(C)c(C(=O)Nc3ccc(C(F)(F)F)cc3)sc2n1
EC50 [3]: 1.41 µM (active) | EC50 [4]: > 60 µM (inconclusive)

N#Cc1ccc(C(c2ccc(C#N)cc2)n2cncn2)cc1 [LETROZOLE]
AC50 (Cytochrome P450 2C19; read-out: AC50): 7.94 µM (inconclusive)

— ChEMBL document CHEMBL1201862, “PubChem BioAssay data set” (2004)
